Experimental data as given in the supplement of paper PMC7108870.

Legend:
HEK293sieSTAT3(wt) [1] = assay: drug sensitivity score (DSS), cytotoxicity CellTox Green (DSS (dimensionless)); higher = more cytotoxic; extreme values may be limits of the assay; settings: 72 h; STAT3 variant: wild type
Method in brief: (§1)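 Each value is one representative of two experiments in which HEK293 cells overexpressing wild-type or mutant STAT3 with a STAT3-dependent luciferase reporter were exposed to compounds at 5 concentrations (10-fold dilutions) for 72 hours at 37°C and 5% CO2. Readouts were CellTox Green fluorescence and then CellTiter-Glo luminescence, normalised to negative and positive control wells. The drug sensitivity score was based on the dose-response curve area and computed in Breeze.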

HEK293sieSTAT3(Y640F) [2] = assay: as above; settings: 72 h; STAT3 variant: Y640F (constitutively active)
Method in brief: as §1

HEK293sieSTAT3(wt) [3] = assay: drug sensitivity score (DSS), viability CellTiter-Glo (DSS (dimensionless)); higher = more growth inhibition; extreme values may be limits of the assay; settings: 72 h; STAT3 variant: wild type
Method in brief: as §1

HEK293sieSTAT3(Y640F) [4] = assay: as above; settings: 72 h; STAT3 variant: Y640F (constitutively active)
Method in brief: as §1

Row | SMILES | drug sensitivity score (HEK293sieSTAT3(wt) [1]) | drug sensitivity score (HEK293sieSTAT3(Y640F) [2]) | drug sensitivity score (HEK293sieSTAT3(wt) [3]) | drug sensitivity score (HEK293sieSTAT3(Y640F) [4])
1 | C[C@]12C=CC(=O)C=C1CC[C@@H]1[C@@H]2[C@@H](O)C[C@@]2(C)[C@H]1CC[C@]2(O)C(=O)CO [Prednisolone] (top concentration tested 10000 nM) | 0 | 0 | 0 | 0
2 | C[C@]12C=CC(=O)C=C1CC[C@@H]1[C@@H]2C(=O)C[C@@]2(C)[C@H]1CC[C@]2(O)C(=O)CO [Prednisone] (top concentration tested 10000 nM) | 0 | 0.59 | 3.96 | 0.65
3 | COc1cccc(OCCCN)c1-c1cc(Nc2cnc(C#N)cn2)n[nH]1 [Prexasertib] (top concentration tested 10000 nM) | 12.4 | 15.4 | 37 | 42.1
4 | CNNCc1ccc(C(=O)NC(C)C)cc1 [Procarbazine] (top concentration tested 10000 nM) | 0 | 0 | 0 | 0
5 | Cc1cc(-c2ncc(-c3cccnc3)cc2/C=C/c2ccccc2)cnc1-c1cccnc1 [Pyridoclax] (top concentration tested 25000 nM) | 5.06 | 1.38 | 10.1 | 12.2
6 | Cn1cc(CNCC2CCN(c3ncc(C(=O)NO)cn3)CC2)c2ccccc21 [Quisinostat] (top concentration tested 1000 nM) | 7.75 | 6.14 | 17.9 | 16.3
7 | CC(C)(C)c1cc(NC(=O)Nc2ccc(-c3cn4c(n3)sc3cc(OCCN5CCOCC5)ccc34)cc2)no1 [Quizartinib] (top concentration tested 1000 nM) | 1.05 | 0 | 2.01 | 2.15
8 | Cn1c(Nc2ccc(C(F)(F)F)cc2)nc2cc(Oc3ccnc(-c4ncc(C(F)(F)F)[nH]4)c3)ccc21 [RAF265] (top concentration tested 1000 nM) | 0.14 | 0 | 0.25 | 0
9 | CNC(=O)c1ccc(N2C(=S)N(c3ccc(C#N)c(C(F)(F)F)c3)C(=O)C23CCC3)cc1F [RD162] (top concentration tested 10000 nM) | 0.2 | 0 | 1.68 | 2.62
10 | CCNC(=O)Nc1ccc(-c2nc3c(c(N4CCOC[C@@H]4C)n2)CCN(C2COC2)C3)cc1 [RG-7603] (top concentration tested 2500 nM) | 0 | 0 | 8.47 | 6.22
11 | Nc1cc(F)ccc1NC(=O)/C=C/c1cnn(C/C=C/c2ccccc2)c1 [RGFP966] (top concentration tested 10000 nM) | 0 | 0 | 6.28 | 5.46
12 | Cc1cnc(NC(=O)Nc2cc(Br)c(C)cc2OC[C@@H]2CNCCO2)cn1 [Rabusertib] (top concentration tested 1000 nM) | 1.61 | 0.03 | 5.03 | 5.38
13 | C[C@@H]1C[C@H]2O[C@@H]2/C=C\C=C\C(=O)Cc2c(Cl)c(O)cc(O)c2C(=O)O1 [Radicicol] (top concentration tested 10000 nM) | 14.4 | 7.65 | 25.1 | 19.5
14 | CC(C)(C)Cn1c(N)nc2ccc(-c3[nH]c(C(C)(C)C)nc3-c3ccc(F)cc3)nc21 [Ralimetinib] (top concentration tested 10000 nM) | 0 | 0.02 | 0 | 0.9
15 | O=C(c1ccc(OCCN2CCCCC2)cc1)c1c(-c2ccc(O)cc2)sc2cc(O)ccc12 [Raloxifene] (top concentration tested 10000 nM) | 6.26 | 0 | 5.05 | 3.8
16 | Cc1nc(=O)c2cc(CN(C)c3ccc(C(=O)N[C@@H](CCC(=O)O)C(=O)O)s3)ccc2[nH]1 [Raltitrexed] (top concentration tested 1000 nM) | 2.49 | 0 | 15.1 | 20.1
17 | CNC(=O)c1cc(Oc2ccc(NC(=O)Nc3cc(C(C)(C)C)nn3-c3ccc4ncccc4c3)c(F)c2)ccn1 [Rebastinib] (top concentration tested 1000 nM) | 1.16 | 0 | 0 | 0
